These results are taken from patent US20090081197A1 (Palatin Technologies, Inc., priority 2007, published 2009).

Assay [1] can be described thus: IP (and IN) food intake, mice. It counts as in vivo. The following applies: mouse, IP, 10 mg/kg, 4 hours. Put shortly:
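Male Sprague-Dawley rats dosed IV (0.5-3, up to 10 mg/kg) or IP (0.5-10, up to 50 mg/kg); male C57BL/6 mice dosed IP. Change in food intake and body weight over 24 h post-dose versus 1-week vehicle baseline, with 48 and 72 h reversal checks.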

The target of assay [2] is T1, MC4-R (Homo sapiens, UniProt P32245). The experiment in a line: cAMP functional activity assay in HEK-293 cells, normal system. On the set-up: expressed in transfected cells; host or cells: HEK-293. It counts as cell-based. The following applies: for intrinsic activity at MC4-R in a normal system: normal receptor density system, NDP-α-MSH = 1.0.
Assay [3] concerns the target T1, MC4-R. The experiment in a line: Assay for neutral antagonist, Schild analysis (pA2) against NDP-α-MSH. It counts as cell-based. On the set-up: expressed in transfected cells; host or cells: HEK-293. The following applies: Schild analysis vs NDP-α-MSH; read-out: pA2 value as antagonist at MC4-R in a normal system (converted). As for the experimental part: Assay for Neutral Antagonist. […] These studies were carried out in HEK-293 cells expressing the MC4-R receptor. Cells were incubated with the compounds in the presence of the agonist NDP-α-MSH and the extent of antagonism was measured by the decrease in the level of intracellular cAMP. Screening the compounds for antagonists was done at a single concentration of NDP-α-MSH (1.0 nM) over a compound concentration range of 0.5-5000 nM.
Experimental details were similar to the analysis for agonistic activity described above. Briefly, cells were pre-incubated for 30 minutes with the test compounds at concentrations between 0.5 nM and 5000 nM. The cells were then stimulated with NDP-α-MSH at a concentration of 1 nM for 1 hour. For Schild analysis, the interactions were studied using at least 3 concentrations of the compounds, separated by a log unit, over a full range of the agonist (0.005-5000 nM). cAMP levels was measured in the cell lysates after appropriate dilution. Nonlinear regression analysis with Prism Graph-Pad software was used for Schild analysis and to obtain EC50 values. pA2 values were derived from the Schild plot of the data.

Non-standard residues stand in square brackets, D forms with d. Residues, ends and D or L forms follow the SMILES beside them. *: point of attachment. dPhe(4-Cl) = N[C@H](Cc1ccc(Cl)cc1)C(=O)O; Ahp = NCCCCCCC(=O)O; Bn = c1ccc(C*)cc1

T1 sequence (P32245 whole entry): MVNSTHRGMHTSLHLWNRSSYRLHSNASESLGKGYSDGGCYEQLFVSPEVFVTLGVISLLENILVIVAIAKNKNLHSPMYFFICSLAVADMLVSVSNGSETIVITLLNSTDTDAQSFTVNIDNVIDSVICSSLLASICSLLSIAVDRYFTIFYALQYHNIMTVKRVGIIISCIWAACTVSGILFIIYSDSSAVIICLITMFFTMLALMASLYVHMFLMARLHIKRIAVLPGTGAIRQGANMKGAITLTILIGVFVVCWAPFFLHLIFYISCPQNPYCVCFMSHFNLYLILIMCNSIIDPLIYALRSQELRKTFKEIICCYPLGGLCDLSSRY

With `N=C(N)NCCC[C@H]1CN(CCc2ccc3ccccc3c2)CCN1C(=O)[C@H](N)Cc1ccc(Cl)cc1Cl` [Example 17, N-{3-[(S)-1-[(R)-2-Amino-3-(2,4-dichloro-phenyl)-propionyl]-4-(2-naphthalen-2-yl-ethyl)-piperazin-2-yl]-propyl}-guanidine], the “maximal decrease in food intake” value in assay [1] stood at 86%. Moreover, the “intrinsic activity at MC4-R in a normal system” value on MC4-R [2] was found to be 0.4. In addition, the “functional status at MC4-R in cAMP assay” value at MC4-R [2] (normal system, 1 μM concentration where stated) is “partial agonist (intrinsic activity between 0.1 (10%) and 0.7 (70%) is classified as a partial agonist)”.
Regarding `N=C(N)NCCC[C@H](NC(=O)[C@@H](Cc1ccc(Cl)cc1)NC(=O)[C@H](COCc1ccccc1)NC(=O)CCCCCCN)C(=O)N[C@@H](Cc1c[nH]c2ccccc12)C(=O)N[C@@H](CC(=O)O)C(N)=O` [Example 13, NH2—(CH2)6—C(═O)-Ser(Bzl)-D-Phe(4-Cl)-Arg-Trp-Asp-NH2] (H-[Ahp]S(Bn)[dPhe(4-Cl)]RWD-NH2), the Kb at MC4-R [3] was 50.1 nM. Besides, the “intrinsic activity at MC4-R in a normal system” value at MC4-R [2] is on record as 0.5.
